According to US20230210110A1, “METHOD FOR INDUCING ENVIRONMENTAL STRESS TOLERANCE IN PLANTS” (AJINOMOTO CO., INC., priority 2020, published 2023):
“Also recorded” adds a separate entry of the source.

Experiments:
[1] = test system: RD29A, RD29B, MAPKKK18, ABF3F and SLAC1 genes; test: Induction of expression of environmental stress tolerance (ABA-responsive) genes, real-time PCR, relative to GAPDH; type: in vivo, Arabidopsis thaliana
Protocol: (§1) Four to six young Arabidopsis thaliana plants grown on a 50% concentration MS (Murashige-Skoog) agar medium were transferred to a 6-well plate containing a 50% concentration MS (Murashige-Skoog) liquid medium and pre-cultured for 16 hours, then added with a treatment solution containing each amino acid alone or a treatment solution containing a combination of each amino acid and ABA, and left for 6 hours. Then, RNA was then isolated from the plants with a nucleic acid purification kit (Promega, Maxwell (registered trademark) 16 LEV simplyRNA Tissue Kit). Then, cDNA was synthesized with a cDNA synthesis reagent for real-time PCR (Toyobo, ReverTra Ace (registered trademark) qPCR RT Master Mix).
MAPKKK18 is a gene encoding a kinase (MAPKKK18, MITOGEN-ACTIVATED PROTEIN KINASE KINASE KINASE 18) that functions in the ABA signaling pathway of Arabidopsis thaliana (Zelicourt A. et al., Trends in Plant Science 21: (2016)). RD29A and RD29B are genes encoding hydrophilic proteins (RESPONSIVE TO DESICCATION 29A, RESPONSIVE TO DESICCATION 29B) that are responsive for ABA and environmental stress such as drought stress and salinity stress and considered to be involved in stress tolerance and senescence suppression (Yang S. D. et al., Plant Cell 6: 2155-2168 (2011)). ABF3 is a gene encoding a transcription factor (ABA-responsive element-binding protein) that regulates expression of ABA-responsive genes (Yoshida T. et al., Plant, cell and Environment 38: 35-49 (2015)). SLAC1 is a gene encoding an anion channel involved in stomatal closure (Yoshida et al., J Plant Res (2016) 129:39-49). GAPDH is a glyceraldehyde-3-phosphate dehydrogenase gene and was selected as an internal standard.
The expression levels of the genes were calculated as relative expression levels to the GAPDH gene. Twenty amino acids were divided into 10 each, and the gene expression inducing activity when combined with ABA was evaluated in two tests (n=2).
(§2) The expression levels of the respective genes were calculated as relative expression levels to the GAPDH gene in the same manner as in Example 1.
Separately, Arabidopsis thaliana was treated with a combination of 0.1 mM, 0.25 mM, 1 mM, 2.5 mM, 10 mM, or 25 mM of Lys and 0.25 μM of ABA in the same manner as in Example 1, and expression of MAPKKK18, RD29A, and RD29B genes after 6 hours of treatment was analyzed (n=3). The expression levels of the respective genes were calculated as relative expression levels to the GAPDH gene in the same manner as in Example 1. […]
as §2, §2

[2] = test system: Arabidopsis thaliana; test: Drought stress tolerance: survival rate after drought and re-watering; type: in vivo; conditions: 12 days after spray, water supplied again at 9 days; 50 μM ABA (2.5 mM Lys in the combination); Mock 8.5%
Protocol: A test for verifying an effect of conferring drought stress tolerance by a combination of Lys and ABA was carried out. Arabidopsis thaliana grown on rockwool under short-day conditions for 35 days was spray treated with 50 μM of ABA alone or with 2.5 mM of Lys and 50 μM of ABA in combination. As a control treatment group (Mock), Arabidopsis thaliana was spray treated with DMSO. After the spray treatment, cultivation was continued without water supply, to subject Arabidopsis thaliana to drought stress. Water was again supplied to Arabidopsis thaliana 9 days after the spray treatment, and the survival rate was measured 12 days after the spray treatment (n=94-96).

[3] = test system: RD29B and MAPKKK18; test: Effect of Lys derivatives and nitrogen-containing compounds on induction of environmental stress tolerance genes by ABA (activity level); type: in vivo, Arabidopsis thaliana; conditions: total of induction activities of RD29B and MAPKKK18 with 1 mM compound and 0.25 μM ABA, relative to ABA alone taken as 1; >1 enhanced, 1 no effect, <1 suppressed
Protocol: as §1
GAPDH is a glyceraldehyde-3-phosphate dehydrogenase gene and was selected as an internal standard.
Lys or each Lys derivative is used for treatment at 1 mM and ABA at 0.25 μM.

[4] = test system: tomato (variety Caramba); test: Yield of tomato under drought stress, greenhouse pot test; type: in vivo; conditions: for Yield (g/plot accumulation): drought stress 50% water, four foliar sprays, ABA is (S)-(+)-abscisic acid, Lys is L-Lys hydrochloride, control with drought 924.2; for % to T2: yield relative to control with drought stress (T2)
Protocol: A pot test of tomato was carried out in a greenhouse in Valencia, Spain. The test was carried out using 20 pots (=20 replications) of tomatoes grown on pots of 0.3 m^2 size. The variety of tomato used was Caramba. Abscisic acid used was (S)-(+)-abscisic acid and Lys used was L-Lys hydrochloride. Foliar spray treatments were carried out four times. The first treatment was carried out at time 61 on the BBCH scale (BBCH61: when the first flower of the first inflorescence bloomed), the second treatment was carried out 21 days after the first treatment, the third treatment was carried out 14 days after the second treatment, and the fourth treatment was carried out 14 days after the third treatment. A harvest survey was carried out at time 82 on the BBCH scale (BBCH82: when 20% of the fruit were fully ripe and colored).

[5] = test system: Arabidopsis thaliana; test: Drought stress tolerance: dehydration amount during cultivation without water supply; type: in vivo; conditions: spray, control approximately 77%
Protocol: A test for verifying an effect of conferring drought stress tolerance by a combination of Lys and ABA was carried out (n=4). For Arabidopsis thaliana grown on rockwool under short-day conditions for 35 days, the weight of the rockwool and the whole plant was measured, to determine the initial weight. Arabidopsis thaliana was spray treated with 2.5 mM of Lys and 5 μM or 50 μM of ABA alone or in combination (first spray treatment). As a control treatment group, Arabidopsis thaliana was spray treated with DMSO (first spray treatment). After the first spray treatment, cultivation was continued for 7 days without water supply. During cultivation, a second spray treatment was carried out 4 days after the first spray treatment. The weight of the rockwool and the whole plant was measured 4 and 7 days after the first spray treatment, to determine the post-cultivation weight. The post-cultivation weight was subtracted from the initial weight, to determine the dehydration amount during cultivation.

[6] = test system: Wheat (Norin 61); test: Drought stress tolerance of wheat: water loss and survival rate; type: in vivo; conditions: 10 μM ABA (2.5 mM Lys in the combination)
Protocol: A test for verifying an effect of conferring drought stress tolerance by a combination of Lys and ABA in wheat was carried out. Wheat (Norin 61) grown on rockwool under long-day conditions for 13 days was spray treated with 10 μM of ABA alone or with 2.5 mM or 10 mM of Lys and 10 μM of ABA in combination. As a control treatment group (Mock), the wheat was spray treated with DMSO. After the spray treatment, cultivation was continued without water supply, to subject wheat to drought stress. During cultivation, the water loss from the rockwool was measured. Water was again supplied to the wheat 21 days after the spray treatment, and the survival rate was measured 23 days after the spray treatment (n=24).

[7] = test system: RD29A, RD29B, MAPKKK18, ABF3F and SLAC1 genes; test: Induction of expression of environmental stress tolerance (ABA-responsive) genes, real-time PCR, relative to GAPDH; type: in vivo, Arabidopsis thaliana; conditions: amino acid alone or combination with ABA, 6 hours, n=3
[8] = MAPKKK18, RD29A, RD29B, 0.05-2.5 mM Lys with 0.25 μM ABA, 6 hours, upper panel of FIG. 3

In the case of `CC1=CC(=O)CC(C)(C)C1(O)/C=C/C(C)=C\C(=O)O` (racemic) [ABA, abscisic acid, reference compound], the “Expression induction of RD29A and RD29B genes by ABA” value ([1]; wild-type strain (WT, Col-0), 0.25 μM ABA, 6 hours) was “observed”, the survival rate [2] was 13.5% and the Activity level [3] was 1. The “Yield (g/plot accumulation)” value ([4]; 10 μM ABA and/or 2.5 mM Lys) was 1008.1 g/plot, the “Yield (g/plot accumulation)” value ([4]; 100 μM ABA and/or 25 mM Lys) was 1081.6 g/plot and the “% to T2” value ([4]; 10 μM ABA and/or 2.5 mM Lys) was 109.1%. The “% to T2” value ([4]; 100 μM ABA and/or 25 mM Lys) was 117.0%, the “dehydration amount on the 4th day” value ([5]; 5 μM ABA (2.5 mM Lys in the combination)) was “approximately 80.1%” and the “dehydration amount on the 4th day” value ([5]; 50 μM ABA (2.5 mM Lys in the combination)) was “approximately 57%”. For the same molecule, the survival rate ([6]; 23 days after spray, water supplied again at 21 days, Mock 9.4%) was 6.7%, the “dehydration amount on the 5th day” value ([6]; spray, control approximately 84%) was “approximately 61%” and the “dehydration amount on the 6th day” value ([6]; spray, control approximately 91%) was “approximately 82%”.
`NCCCC[C@H](N)C(=O)O` [No. 1, lysine] was tested, and the “activity of synergistically enhancing the effect of the natural-type ABA” value ([1]; Lys in combination with natural-type ABA ((S)-(+)-ABA)) was “synergistically enhance the effect of the natural-type ABA”, the “Lys concentrations at which Lys concentration-dependent improvement in expression inducing activity was observed” value [1, 8] was ≥ 0.25 mM and the “Lys concentrations at which no improvement in expression inducing activity was observed” value [1, 8] was ≤ 0.1 mM. For the same molecule, the “Lys concentration-dependent improvement in expression inducing activity” value ([1]; MAPKKK18, RD29A, RD29B, 0.1-25 mM Lys with 0.25 μM ABA, 6 hours, lower panel of FIG. 3) was “at least up to Lys concentrations of 10 mM or 25 mM”, the “effect of Lys on inducing expression of environmental stress tolerance genes by ABA” value ([1]; MAPKKK18 and RD29B, 1 mM Lys in combination with 0.25 μM ABA, 6 hours) was “enhanced” and the “effect of Lys on inducing expression of environmental stress tolerance genes by ABA agonist” value ([1]; MAPKKK18 and RD29B, 1 mM Lys in combination with opabactin (OP), 6 hours) was “enhanced”. The “effect of Lys on inducing expression of environmental stress tolerance genes by ABA agonist” value ([1]; MAPKKK18 and RD29B, 1 mM Lys in combination with quinabactin (QB), 6 hours) was “enhanced”, the “activity of synergistically enhancing the effect of ABA” value ([1]; RD29B expression, amino acid in combination with ABA, listed as Lys) was “synergistically enhance the effect of ABA; also recorded: significantly high activity” and the “effect of enhancing the ABA activity by Lys” value ([1]; wild-type strain, 0.5 mM Lys with 0.25 μM ABA, 6 hours) was “observed”. The “Yield (g/plot accumulation)” value ([4]; 10 μM ABA and/or 2.5 mM Lys) was 1089.3 g/plot, the “Yield (g/plot accumulation)” value ([4]; 100 μM ABA and/or 25 mM Lys) was 1114.6 g/plot and the “% to T2” value ([4]; 10 μM ABA and/or 2.5 mM Lys) was 117.9%. The “% to T2” value ([4]; 100 μM ABA and/or 25 mM Lys) was 120.6% and the “activity to induce expression of the environmental stress tolerance gene RD29B” value [7] was “No activity”.
